Test results: patent US20240182445A1 (ONO PHARMACEUTICAL CO., LTD., priority 2019, published 2024)
pIC50: −log10 of the molar value.

Molecular target: T1, human TREK-1 (Homo sapiens, UniProt O95069)
T1 construct: expressed in transfected cells
T1 sequence (O95069 1-426): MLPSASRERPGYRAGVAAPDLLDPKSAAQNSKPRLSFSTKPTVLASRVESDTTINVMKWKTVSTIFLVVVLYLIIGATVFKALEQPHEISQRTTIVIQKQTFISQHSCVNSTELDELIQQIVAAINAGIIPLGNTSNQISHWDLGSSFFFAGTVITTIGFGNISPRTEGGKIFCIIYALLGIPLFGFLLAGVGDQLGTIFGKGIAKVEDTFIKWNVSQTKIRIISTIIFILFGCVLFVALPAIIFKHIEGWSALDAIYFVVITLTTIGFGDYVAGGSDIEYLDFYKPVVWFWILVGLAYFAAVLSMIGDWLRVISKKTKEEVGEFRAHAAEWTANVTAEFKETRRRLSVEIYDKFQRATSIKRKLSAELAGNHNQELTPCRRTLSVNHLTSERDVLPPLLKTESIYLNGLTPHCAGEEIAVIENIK
Experiment: TREK-1 Thallium (Tl+) flux assay, Method 1
Format: cell-based
Details: TREK-1 Thallium (Tl+) flux assay, Method 1
How it was run: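 Readout: Thallos fluorescence ratio, taken 25 s post-thallium relative to the pre-thallium baseline average, then converted to % inhibition. Cells were CHO-K1 stably expressing human TREK-1, dye-loaded and exposed to test compound (vehicle 0.3% DMSO) for 10 min prior to thallium stimulation.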

Q: With `CCOc1ccc(-c2cnc(NC(=O)c3c(Cl)cnn3C3CCN(C(=O)OC(C)(C)C)CC3)c(C)c2)cc1` [Compound 431, tert-butyl 4-(4-chloro-5-((5-(4-ethoxyphenyl)-3-methylpyridin-2-yl)carbamoyl)-1H-pyrazol-1-yl)piperidine-1-carboxylate] as the molecule, how does the pIC50 read?
A: 5.19

Same assay, conditions: TREK-1 Thallium (Tl+) flux assay; no *^12 (Method 2) mark on these rows

Q: `CC(C)(C)OC(=O)N1CCC(n2ncc(Cl)c2C(=O)Nc2ncc(C#Cc3ccccc3)cc2F)C1` (stereo not drawn) [Compound 237, tert-butyl 3-(4-chloro-5-((3-fluoro-5-(phenylethynyl)pyridin-2-yl)carbamoyl)-1H-pyrazol-1-yl)pyrrolidine-1-carboxylate] was tested. Which pIC50 did it give?
A: 6.43

Q: How did the pIC50 turn out when `CC(=O)N1CCC(n2ncc(Cl)c2C(=O)Nc2ncc(C#Cc3ccc(F)cc3)cc2F)[C@H](F)C1` (stereo in doubt) [Compound 213, 1-((3R,4R)-1-acetyl-3-fluoropiperidin-4-yl)-4-chloro-N-(3-fluoro-5-((4-fluorophenyl)ethynyl)pyridin-2-yl)-1H-pyrazole-5-carboxamide] was run?
A: 6.48

Q: `O=C(Nc1ncc(C#Cc2ccccc2)cc1F)c1c(Cl)cnn1CC1CCCO1` (stereo not drawn) [Compound 366, 4-chloro-N-(3-fluoro-5-(phenylethynyl)pyridin-2-yl)-1-((tetrahydrofuran-2-yl)methyl)-1H-pyrazole-5-carboxamide] was tested. Which pIC50 did it give?
A: 6.03

Q: How did the pIC50 turn out when `CC(C)(C)OC(=O)N1CCOC(Cn2ncc(Cl)c2C(=O)Nc2ncc(C#Cc3ccccc3)cc2F)C1` (stereo not drawn) [Compound 300, tert-butyl 2-((4-chloro-5-((3-fluoro-5-(phenylethynyl)pyridin-2-yl)carbamoyl)-1H-pyrazol-1-yl)methyl)morpholine-4-carboxylate] was run?
A: 6.27

Q: How did the pIC50 turn out when `Cc1cc(-c2cnn(-c3ccc(F)cc3)c2)cnc1NC(=O)c1c(Cl)cnn1C[C@@H]1CCOC1` [Compound 379, (S)-4-chloro-N-(5-(1-(4-fluorophenyl)-1H-pyrazol-4-yl)-3-methylpyridin-2-yl)-1-((tetrahydrofuran-3-yl)methyl)-1H-pyrazole-5-carboxamide] was run?
A: 6.49

Q: How did the pIC50 turn out when `CC(=O)N1C[C@H]2C[C@H](n3ncc(Cl)c3C(=O)Nc3ncc(C#Cc4cccc(F)c4)cc3C)C[C@H]2C1` [Compound 195, 1-[(3aR,5s,6aS)-2-acetyloctahydrocyclopenta[c]pyrrol-5-yl]-4-chloro-N-{5-[(3-fluorophenyl)ethynyl]-3-methylpyridin-2-yl}-1H-pyrazole-5-carboxamide] was run?
A: 6.52

Same assay, conditions: TREK-1 Thallium (Tl+) flux assay; values without footnote *12 are Method 1

Q: With `CS(=O)(=O)N1CCC(n2ncc(Cl)c2C(=O)Nc2ncc(C#Cc3ccccc3)cc2F)CC1` [Compound 70, 4-chloro-N-(3-fluoro-5-(phenylethynyl)pyridin-2-yl)-1-(1-(methylsulfonyl)piperidin-4-yl)-1H-pyrazole-5-carboxamide] as the molecule, how does the pIC50 read?
A: 6.80

Q: With `CC(=O)N1CCC(C#N)(Cn2ncc(Cl)c2C(=O)Nc2ncc(C#Cc3ccccc3)cc2F)CC1` [Compound 39, 1-((1-acetyl-4-cyanopiperidin-4-yl)methyl)-4-chloro-N-(3-fluoro-5-(phenylethynyl)pyridin-2-yl)-1H-pyrazole-5-carboxamide] as the molecule, how does the pIC50 read?
A: 6.92

Q: `CC(C)(C)OC(=O)N1CCC(Cn2ncc(Cl)c2C(=O)Nc2ncc(C#Cc3ccccc3)cc2F)CC1` [Compound 142, tert-butyl 4-((4-chloro-5-((3-fluoro-5-(phenylethynyl)pyridin-2-yl)carbamoyl)-1H-pyrazol-1-yl)methyl)piperidine-1-carboxylate] was tested. Which pIC50 did it give?
A: 6.64

Q: With `CC(=O)N1CCC(CCn2ncc(Cl)c2C(=O)Nc2ncc(C#Cc3ccccc3)cc2C)CC1` [Compound 153, 1-(2-(1-acetylpiperidin-4-yl)ethyl)-4-chloro-N-(3-methyl-5-(phenylethynyl)pyridin-2-yl)-1H-pyrazole-5-carboxamide] as the molecule, how does the pIC50 read?
A: 6.62

Same assay, conditions: read-out: Tl^+ Assay % inhibition at 30 uM (Minus value indicates activation of TREK-1); at 30 uM; CHO-K1 cells stably expressing human TREK-1; minus = activation

Q: `Cc1cc(C#Cc2ccccc2)cnc1NC(=O)c1nn(CC2CCOCC2)cc1Cl` [Compound 444, 4-chloro-N-(3-methyl-5-(phenylethynyl)pyridin-2-yl)-1-((tetrahydro-2H-pyran-4-yl)methyl)-1H-pyrazole-3-carboxamide] was tested. Which inhibition at 30 µM did it give?
A: -116%
